These results are taken from ChEMBL document CHEMBL1148021, “(Arylpiperazinyl)cyclohexylsufonamides: discovery of alpha(1a/1d)-selective adrenergic receptor antagonists for the treatment of Benign Prostatic Hyperplasia/Lower Urinary Tract Symptoms (BPH/LUTS)” (Bioorg Med Chem Lett, 2007).

Test [1] deals with T1, Alpha-1B adrenergic receptor (Homo sapiens, UniProt P35368).
T1 sequence (P35368 whole entry): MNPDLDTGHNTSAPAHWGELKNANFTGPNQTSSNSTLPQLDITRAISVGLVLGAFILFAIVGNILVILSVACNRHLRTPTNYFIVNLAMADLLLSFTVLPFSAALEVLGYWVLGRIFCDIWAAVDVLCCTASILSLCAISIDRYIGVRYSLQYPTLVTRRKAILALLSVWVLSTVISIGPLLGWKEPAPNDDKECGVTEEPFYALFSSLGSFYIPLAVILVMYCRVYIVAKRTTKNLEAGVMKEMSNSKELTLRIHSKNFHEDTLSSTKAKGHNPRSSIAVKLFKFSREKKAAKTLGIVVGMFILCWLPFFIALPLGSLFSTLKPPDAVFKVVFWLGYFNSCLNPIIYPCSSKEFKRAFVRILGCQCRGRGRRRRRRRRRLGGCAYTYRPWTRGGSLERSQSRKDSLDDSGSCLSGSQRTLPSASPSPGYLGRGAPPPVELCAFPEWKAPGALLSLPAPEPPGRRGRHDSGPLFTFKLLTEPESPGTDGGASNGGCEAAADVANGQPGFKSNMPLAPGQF
Put plainly: Binding affinity to human cloned adrenergic alpha-1B receptor.

Test [2] deals with T2, Alpha-1D adrenergic receptor (Homo sapiens, UniProt P25100).
T2 sequence (P25100 whole entry): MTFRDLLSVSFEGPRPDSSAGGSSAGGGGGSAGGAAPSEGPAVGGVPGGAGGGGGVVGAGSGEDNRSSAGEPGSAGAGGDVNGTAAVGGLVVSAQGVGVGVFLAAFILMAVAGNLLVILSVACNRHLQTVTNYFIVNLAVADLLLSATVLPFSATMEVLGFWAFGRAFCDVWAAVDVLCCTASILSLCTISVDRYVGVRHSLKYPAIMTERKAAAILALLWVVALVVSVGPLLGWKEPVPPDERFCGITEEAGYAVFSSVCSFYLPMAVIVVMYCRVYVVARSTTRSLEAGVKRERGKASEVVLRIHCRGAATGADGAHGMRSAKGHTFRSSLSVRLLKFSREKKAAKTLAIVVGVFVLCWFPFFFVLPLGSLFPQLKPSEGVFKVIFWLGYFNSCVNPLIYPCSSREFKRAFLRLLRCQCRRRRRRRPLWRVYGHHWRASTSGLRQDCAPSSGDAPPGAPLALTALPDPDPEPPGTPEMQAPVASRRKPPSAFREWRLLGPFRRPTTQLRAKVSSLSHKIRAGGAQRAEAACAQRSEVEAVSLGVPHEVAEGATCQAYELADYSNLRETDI
Description: Binding affinity to human cloned adrenergic Alpha-1D receptor.

In test [3] the target is T3, Alpha-1A adrenergic receptor (Homo sapiens, UniProt P35348).
T3 sequence (P35348 whole entry): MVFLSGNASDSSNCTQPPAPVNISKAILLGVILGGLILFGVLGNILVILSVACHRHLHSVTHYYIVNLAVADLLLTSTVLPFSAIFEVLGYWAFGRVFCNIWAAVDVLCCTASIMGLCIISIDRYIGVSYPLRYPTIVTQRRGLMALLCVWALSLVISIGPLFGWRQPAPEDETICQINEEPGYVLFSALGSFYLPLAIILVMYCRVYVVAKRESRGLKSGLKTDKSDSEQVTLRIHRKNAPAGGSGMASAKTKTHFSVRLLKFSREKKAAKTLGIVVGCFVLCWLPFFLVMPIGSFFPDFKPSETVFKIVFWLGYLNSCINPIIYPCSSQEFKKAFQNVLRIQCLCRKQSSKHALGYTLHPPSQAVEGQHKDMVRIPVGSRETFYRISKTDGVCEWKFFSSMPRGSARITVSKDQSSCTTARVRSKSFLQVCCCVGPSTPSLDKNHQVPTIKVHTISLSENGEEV
Put plainly: Binding affinity to human cloned adrenergic alpha-1A receptor.

In test [4] the target is D(2) dopamine receptor (Homo sapiens, UniProt P14416). Put plainly: Binding affinity to human dopamine D2 receptor.
Chain of D(2) dopamine receptor (P14416 whole entry): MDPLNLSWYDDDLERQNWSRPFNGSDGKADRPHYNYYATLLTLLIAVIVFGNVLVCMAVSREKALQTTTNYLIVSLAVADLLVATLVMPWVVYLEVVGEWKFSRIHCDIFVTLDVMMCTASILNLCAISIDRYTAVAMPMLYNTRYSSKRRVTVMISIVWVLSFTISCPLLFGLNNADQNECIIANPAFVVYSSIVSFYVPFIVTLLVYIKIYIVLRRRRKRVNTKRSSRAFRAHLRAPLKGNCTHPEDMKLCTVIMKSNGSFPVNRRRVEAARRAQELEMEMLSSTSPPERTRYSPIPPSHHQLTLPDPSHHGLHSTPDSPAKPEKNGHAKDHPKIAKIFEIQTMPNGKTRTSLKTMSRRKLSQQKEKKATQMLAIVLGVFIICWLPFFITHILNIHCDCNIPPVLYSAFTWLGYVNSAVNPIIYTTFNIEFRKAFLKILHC

pKi: −log10 of the molar value.

For the compound `COc1ccc(S(=O)(=O)N[C@H]2CC[C@@H](N3CCN(c4ccccc4OCC4CC4)CC3)CC2)cc1OC`, the pKi in test [1] is 6.44; in test [2], 7.19; in test [3] it was 6.72; in test [4], 6.91.

`COc1ccc(Cl)cc1S(=O)(=O)N[C@H]1CC[C@@H](N2CCN(c3ccccc3OCC3CC3)CC2)CC1`: the pKi was 6.22 in test [1], 7.32 in test [2], 7.72 in test [3] and 6.23 in test [4].

As for `O=S(=O)(N[C@H]1CC[C@@H](N2CCN(c3ccccc3OCC3CC3)CC2)CC1)c1cc(Cl)ccc1F`, the negative-log Ki (pKi) in test [1] is 6.02; in test [2], 7.36; in test [3], 7.44; in test [4] it was 6.37.

Regarding `COc1ccc(C)cc1S(=O)(=O)N[C@H]1CC[C@@H](N2CCN(c3ccccc3OC(C)C)CC2)CC1`, the pKi in test [1] is 6.79; in test [2] it was 8.15; in test [3], 7.74; in test [4] it was 6.96.

As to `CC(C)Oc1ccccc1N1CCN([C@H]2CC[C@@H](NS(=O)(=O)c3cc(Cl)ccc3F)CC2)CC1`, the pKi is 5.73 in test [1], 7.82 in test [2], 7.35 in test [3] and 6.45 in test [4].

Consider `COc1ccc(Cl)cc1S(=O)(=O)N[C@H]1CC[C@@H](N2CCN(c3ccccc3OC(C)C)CC2)CC1` (stereo in doubt; form 2), for which the results for the pKi in test [1], in test [3] and in test [4] were 6.40, 7.96 and 6.59, respectively.
